By IC50 is commonly meant the point on the concentration scale where inhibition reaches its midpoint.

Sequence of human GluN1/GluN2B NMDA receptors (Q13224 27-1484, other chains not shown): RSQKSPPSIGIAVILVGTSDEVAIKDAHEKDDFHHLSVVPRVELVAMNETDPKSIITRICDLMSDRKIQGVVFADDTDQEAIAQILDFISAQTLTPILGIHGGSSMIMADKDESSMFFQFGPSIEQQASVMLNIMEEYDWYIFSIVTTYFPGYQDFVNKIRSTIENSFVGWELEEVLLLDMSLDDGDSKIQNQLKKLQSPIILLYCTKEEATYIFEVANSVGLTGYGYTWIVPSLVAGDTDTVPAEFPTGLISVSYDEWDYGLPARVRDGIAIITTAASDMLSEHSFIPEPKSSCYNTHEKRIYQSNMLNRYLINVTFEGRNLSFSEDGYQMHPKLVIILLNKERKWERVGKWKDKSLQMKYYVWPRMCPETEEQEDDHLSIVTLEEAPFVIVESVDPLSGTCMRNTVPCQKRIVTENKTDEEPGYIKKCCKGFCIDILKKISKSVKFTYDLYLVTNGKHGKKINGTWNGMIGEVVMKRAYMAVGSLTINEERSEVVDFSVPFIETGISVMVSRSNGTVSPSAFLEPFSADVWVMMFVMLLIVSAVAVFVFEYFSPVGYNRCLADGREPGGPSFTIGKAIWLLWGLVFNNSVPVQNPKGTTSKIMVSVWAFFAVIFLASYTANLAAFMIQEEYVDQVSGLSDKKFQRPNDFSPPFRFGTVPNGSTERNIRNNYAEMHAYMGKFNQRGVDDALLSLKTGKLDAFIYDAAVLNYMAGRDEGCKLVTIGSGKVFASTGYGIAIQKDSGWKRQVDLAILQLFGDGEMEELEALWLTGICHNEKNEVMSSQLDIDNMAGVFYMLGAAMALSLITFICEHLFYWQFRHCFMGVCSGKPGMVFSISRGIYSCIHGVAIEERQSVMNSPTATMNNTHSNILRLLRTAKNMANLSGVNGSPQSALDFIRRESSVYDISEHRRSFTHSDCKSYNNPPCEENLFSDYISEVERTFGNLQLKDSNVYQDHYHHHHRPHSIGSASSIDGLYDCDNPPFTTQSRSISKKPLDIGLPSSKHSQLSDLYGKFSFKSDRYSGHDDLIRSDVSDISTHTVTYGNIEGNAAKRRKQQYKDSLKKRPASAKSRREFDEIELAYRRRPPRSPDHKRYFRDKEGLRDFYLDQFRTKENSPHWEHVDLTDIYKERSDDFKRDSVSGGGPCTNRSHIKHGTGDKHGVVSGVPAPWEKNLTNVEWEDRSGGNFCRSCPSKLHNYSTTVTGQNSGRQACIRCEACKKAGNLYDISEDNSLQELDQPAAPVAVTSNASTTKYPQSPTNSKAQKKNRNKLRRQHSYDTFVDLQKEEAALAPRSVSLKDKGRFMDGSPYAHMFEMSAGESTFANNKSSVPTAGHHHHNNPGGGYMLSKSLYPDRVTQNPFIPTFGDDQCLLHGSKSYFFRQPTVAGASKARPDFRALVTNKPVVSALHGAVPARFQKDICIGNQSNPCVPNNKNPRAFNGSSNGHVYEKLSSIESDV

In this assay the target is human GluN1/GluN2B NMDA receptors (Homo sapiens, UniProt Q05586+Q13224). Nature of the assay: Cell-based calcium flux (FLIPR) assay on cloned human NR1/NR2B ion channels expressed in mammalian cells. The note with it: standard assay; human GluN1/GluN2B, calcium flux (FLIPR), glutamate ~EC80. In short, it runs like this:
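Calcium influx followed by FLIPR fluorescence after 5 min compound exposure and a further 5 min co-agonist challenge: 10 μM glycine with glutamate at ~EC80 (standard) or EC40 (HTS).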
On the technique in general: Calcium assays in cells follow changes in intracellular calcium, usually with a dye or a luminescent sensor.
As to `Cc1cccc(-n2cc(COc3ncc(F)c(C)n3)nn2)c1` [Example 252, 5-Fluoro-4-methyl-2-[[1-(m-tolyl)triazol-4-yl]methoxy]pyrimidine], the IC50 worked out at 0.065 µM.
On to `Cc1cccc(-n2cc(COc3ncc(Cl)c(C)n3)nn2)c1` [Example 253, 5-Chloro-4-methyl-2-[[1-(m-tolyl)triazol-4-yl]methoxy]pyrimidine], for which the IC50 is 0.007 µM.
The value for `Cc1cccc(-n2cc(COc3ncc(C)c(N)n3)nn2)c1` [Example 254, 5-Methyl-2-[[1-(m-tolyl)triazol-4-yl]methoxy]pyrimidin-4-amine] was 0.151 µM; that for `CC(=O)c1cnc(OCc2cn(-c3cccc(C)c3)nn2)nc1` [Example 255, 1-[2-[[1-(m-Tolyl)triazol-4-yl]methoxy]pyrimidin-5-yl]ethanone] was 0.224 µM.
The result for `Cc1ccc(-n2cc(COc3ncccn3)nn2)cc1` [Example 256, 2-[[1-(p-Tolyl)triazol-4-yl]methoxy]pyrimidine] reads 4.42 µM.
The value for `Cc1ccc(-n2cc(COc3ncc(F)cn3)nn2)cc1` [Example 257, 5-Fluoro-2-[[1-(p-tolyl)triazol-4-yl]methoxy]pyrimidine] was 2.69 µM; that for `COc1cnc(OCc2cn(-c3ccc(C)cc3)nn2)nc1` [Example 258, 5-Methoxy-2-[[1-(p-tolyl)triazol-4-yl]methoxy]pyrimidine] was 0.225 µM.
Regarding `Cc1ccc(-n2cc(COc3ncc(Cl)cn3)nn2)cc1` [Example 259, 5-Chloro-2-[[1-(p-tolyl)triazol-4-yl]methoxy]pyrimidine], the IC50 was determined as 0.711 µM.
As for `Cc1ccc(-n2cc(COc3ncc(C)cn3)nn2)cc1` [Example 260, 5-Methyl-2-[[1-(p-tolyl)triazol-4-yl]methoxy]pyrimidine], the IC50 amounted to 0.271 µM.
The value for `CCc1cnc(OCc2cn(-c3ccc(C)cc3)nn2)nc1` [Example 261, 5-Ethyl-2-[[1-(p-tolyl)triazol-4-yl]methoxy]pyrimidine] was 0.093 µM; that for `CC(C)c1cccc(-n2cc(COc3ncccn3)nn2)c1` [Example 262, 2-[[1-(3-Isopropylphenyl)triazol-4-yl]methoxy]pyrimidine] was 0.358 µM; that for `CC(C)c1cccc(-n2cc(COc3ncc(F)cn3)nn2)c1` [Example 263, 5-Fluoro-2-[[1-(3-isopropylphenyl)triazol-4-yl]methoxy]pyrimidine] was 0.227 µM.
The result for `COc1cnc(OCc2cn(-c3cccc(C(C)C)c3)nn2)nc1` [Example 264, 2-[[1-(3-Isopropylphenyl)triazol-4-yl]methoxy]-5-methoxy-pyrimidine] reads 0.006 µM; that for `CC(C)c1cccc(-n2cc(COc3ncc(Cl)cn3)nn2)c1` [Example 265, 5-Chloro-2-[[1-(3-isopropylphenyl)triazol-4-yl]methoxy]pyrimidine], 0.016 µM; that for `Cc1cnc(OCc2cn(-c3cccc(C(C)C)c3)nn2)nc1` [Example 266, 2-[[1-(3-Isopropylphenyl)triazol-4-yl]methoxy]-5-methyl-pyrimidine], 0.01 µM.
The value for `CCc1cnc(OCc2cn(-c3cccc(C(C)C)c3)nn2)nc1` [Example 267, 5-Ethyl-2-[[1-(3-isopropylphenyl)triazol-4-yl]methoxy]pyrimidine] was 0.012 µM; that for `Cc1ccnc(OCc2cn(-c3cccc(C(F)F)c3)nn2)n1` [Example 268, 2-[[1-[3-(Difluoromethyl)phenyl]triazol-4-yl]methoxy]-4-methyl-pyrimidine] was 0.134 µM.
For `Fc1cnc(OCc2cn(-c3cccc(C(F)F)c3)nn2)nc1` [Example 269, 2-[[1-[3-(Difluoromethyl)phenyl]triazol-4-yl]methoxy]-5-fluoro-pyrimidine], the IC50 turned out to be 0.325 µM.
The value for `CC(C)c1ccnc(OCc2cn(-c3cccc(C(F)F)c3)nn2)n1` [Example 270] was 0.617 µM; that for `COCc1ccnc(OCc2cn(-c3cccc(C(F)F)c3)nn2)n1` [Example 271] was 0.36 µM; that for `CC(C)(O)c1cnc(OCc2cn(-c3cccc(C(F)F)c3)nn2)nc1` [Example 272, 2-[2-[[1-[3-(Difluoromethyl)phenyl]triazol-4-yl]methoxy]pyrimidin-5-yl]propan-2-ol] was 0.173 µM.
On to `FC(F)c1cnc(OCc2cn(-c3cccc(C(F)F)c3)nn2)nc1` [Example 273, 5-(Difluoromethyl)-2-[[1-[3-(difluoromethyl)phenyl]triazol-4-yl]methoxy]pyrimidine], for which the 50% inhibitory concentration (IC50) was found to be 0.027 µM.
The value for `FC(F)c1cccc(-n2cc(COc3nccc(C(F)F)n3)nn2)c1` [Example 274, 4-(Difluoromethyl)-2-[[1-[3-(difluoromethyl)phenyl]triazol-4-yl]methoxy]pyrimidine] was 0.813 µM; that for `FC(F)c1cccc(-n2cc(COc3ncc(C(F)(F)F)cn3)nn2)c1` [Example 275, 2-[[1-[3-(Difluoromethyl)phenyl]triazol-4-yl]methoxy]-5-(trifluoromethyl)pyrimidine] was 0.025 µM; that for `FC(F)Oc1cnc(OCc2cn(-c3cccc(C(F)F)c3)nn2)nc1` [Example 276, 5-(Difluoromethoxy)-2-[[1-[3-(difluoromethyl)phenyl]triazol-4-yl]methoxy]pyrimidine] was 0.031 µM.
The result for `CN(C)c1ccnc(OCc2cn(-c3cccc(C(F)F)c3)nn2)n1` [Example 277, 2-[[1-[3-(Difluoromethyl)phenyl]triazol-4-yl]methoxy]-N,N-dimethyl-pyrimidin-4-amine] reads 0.041 µM; that for `Cc1nc(OCc2cn(-c3cccc(C(F)F)c3)nn2)ncc1F` [Example 278, 2-[[1-[3-(Difluoromethyl)phenyl]triazol-4-yl]methoxy]-5-fluoro-4-methyl-pyrimidine], 0.042 µM.
For the molecule `Cc1nc(OCc2cn(-c3cccc(C(F)F)c3)nn2)ncc1Cl` [Example 279, 5-Chloro-2-[[1-[3-(difluoromethyl)phenyl]triazol-4-yl]methoxy]-4-methyl-pyrimidine], the half-maximal inhibitory concentration (IC50) was determined as 0.003 µM.
The result for `Cc1cnc(Cl)nc1OCc1cn(-c2cccc(C(F)F)c2)nn1` [Example 280, 2-Chloro-4-[[1-[3-(difluoromethyl)phenyl]triazol-4-yl]methoxy]-5-methyl-pyrimidine] reads 0.173 µM; that for `Cc1cnc(OCc2cn(-c3cccc(C(F)F)c3)nn2)nc1N(C)C` [Example 281, 2-[[1-[3-(Difluoromethyl)phenyl]triazol-4-yl]methoxy]-N,N,5-trimethyl-pyrimidin-4-amine], 0.13 µM; that for `FC(F)c1cccc(-n2cc(COc3ncc(C4CC4)cn3)nn2)c1` [Example 282, 5-Cyclopropyl-2-[[1-[3-(difluoromethyl)phenyl]triazol-4-yl]methoxy]pyrimidine], 0.011 µM.
The value for `FC(F)c1cccc(-n2cc(COc3nccc(C4CC4)n3)nn2)c1` [Example 283, 4-Cyclopropyl-2-[[1-[3-(difluoromethyl)phenyl]triazol-4-yl]methoxy]pyrimidine] was 0.169 µM; that for `FC(F)c1cccc(-n2cc(COc3nccc(N4CCCC4)n3)nn2)c1` [Example 284, 2-[[1-[3-(Difluoromethyl)phenyl]triazol-4-yl]methoxy]-4-pyrrolidin-1-yl-pyrimidine] was 0.094 µM; that for `FC(F)c1cccc(-n2cc(COc3nccc(N4CCCCC4)n3)nn2)c1` [Example 285, 2-[[1-[3-(Difluoromethyl)phenyl]triazol-4-yl]methoxy]-4-(1-piperidyl)pyrimidine] was 0.299 µM.
The result for `Cc1cnc(OCc2cn(-c3cccc(C(F)(F)F)c3)nn2)nc1` [Example 286, 5-Methyl-2-[[1-[3-(trifluoromethyl)phenyl]triazol-4-yl]methoxy]pyrimidine] reads 0.012 µM; that for `CCc1cnc(OCc2cn(-c3cccc(C(F)(F)F)c3)nn2)nc1` [Example 287, 5-Ethyl-2-[[1-[3-(trifluoromethyl)phenyl]triazol-4-yl]methoxy]pyrimidine], 0.005 µM.
As for `CC(C)c1cnc(OCc2cn(-c3cccc(C(F)(F)F)c3)nn2)nc1` [Example 288, 5-Isopropyl-2-[[1-[3-(trifluoromethyl)phenyl]triazol-4-yl]methoxy]pyrimidine], the concentration for half-maximal inhibition (IC50) was determined as 0.04 µM.
The result for `FC(F)c1cnc(OCc2cn(-c3cccc(C(F)(F)F)c3)nn2)nc1` [Example 289, 5-(Difluoromethyl)-2-[[1-[3-(trifluoromethyl)phenyl]triazol-4-yl]methoxy]pyrimidine] reads 0.037 µM; that for `Cc1cnc(OCc2cn(-c3cccc(C(F)(F)F)c3)nn2)nc1C` [Example 290, 4,5-Dimethyl-2-[[1-[3-(trifluoromethyl)phenyl]triazol-4-yl]methoxy]pyrimidine], 0.007 µM; that for `Cc1nc(OCc2cn(-c3cccc(C(F)(F)F)c3)nn2)ncc1Cl` [Example 291, 5-Chloro-4-methyl-2-[[1-[3-(trifluoromethyl)phenyl]triazol-4-yl]methoxy]pyrimidine], 0.009 µM.
The result for `CC(F)(F)c1cccc(-n2cc(COc3ncccn3)nn2)c1` [Example 292, 2-[[1-[3-(1,1-Difluoroethyl)phenyl]triazol-4-yl]methoxy]pyrimidine] reads 0.105 µM; that for `CC(F)(F)c1cccc(-n2cc(COc3ncc(Br)cn3)nn2)c1` [Example 293, 5-Bromo-2-[[1-[3-(1,1-difluoroethyl)phenyl]triazol-4-yl]methoxy]pyrimidine], 0.039 µM; that for `CC(F)(F)c1cccc(-n2cc(COc3ncc(Cl)cn3)nn2)c1` [Example 294, 5-Chloro-2-[[1-[3-(1,1-difluoroethyl)phenyl]triazol-4-yl]methoxy]pyrimidine], 0.003 µM.
As to `CC(F)(F)c1cccc(-n2cc(COc3ncc(F)cn3)nn2)c1` [Example 295, 2-[[1-[3-(1,1-Difluoroethyl)phenyl]triazol-4-yl]methoxy]-5-fluoro-pyrimidine], the IC50 is 0.061 µM.

(Values after US10233173B2, “Substituted 1,2,3-triazoles as NR2B-selective NMDA modulators” (JANSSEN PHARMACEUTICA NV, priority 2016, dated 2019).)
